From ChEMBL document CHEMBL5647690, “Inhibition of demethylases by GSK-J1/J4” (Nature, 2014)

Assays:
[1] = target: T1, Lysine-specific demethylase 2B (Homo sapiens, UniProt Q8NHM5); assay: Inhibition of KDM2B (1 to 650 residues)(unknown origin) by Alphalisa assay
T1 sequence (Q8NHM5 whole entry): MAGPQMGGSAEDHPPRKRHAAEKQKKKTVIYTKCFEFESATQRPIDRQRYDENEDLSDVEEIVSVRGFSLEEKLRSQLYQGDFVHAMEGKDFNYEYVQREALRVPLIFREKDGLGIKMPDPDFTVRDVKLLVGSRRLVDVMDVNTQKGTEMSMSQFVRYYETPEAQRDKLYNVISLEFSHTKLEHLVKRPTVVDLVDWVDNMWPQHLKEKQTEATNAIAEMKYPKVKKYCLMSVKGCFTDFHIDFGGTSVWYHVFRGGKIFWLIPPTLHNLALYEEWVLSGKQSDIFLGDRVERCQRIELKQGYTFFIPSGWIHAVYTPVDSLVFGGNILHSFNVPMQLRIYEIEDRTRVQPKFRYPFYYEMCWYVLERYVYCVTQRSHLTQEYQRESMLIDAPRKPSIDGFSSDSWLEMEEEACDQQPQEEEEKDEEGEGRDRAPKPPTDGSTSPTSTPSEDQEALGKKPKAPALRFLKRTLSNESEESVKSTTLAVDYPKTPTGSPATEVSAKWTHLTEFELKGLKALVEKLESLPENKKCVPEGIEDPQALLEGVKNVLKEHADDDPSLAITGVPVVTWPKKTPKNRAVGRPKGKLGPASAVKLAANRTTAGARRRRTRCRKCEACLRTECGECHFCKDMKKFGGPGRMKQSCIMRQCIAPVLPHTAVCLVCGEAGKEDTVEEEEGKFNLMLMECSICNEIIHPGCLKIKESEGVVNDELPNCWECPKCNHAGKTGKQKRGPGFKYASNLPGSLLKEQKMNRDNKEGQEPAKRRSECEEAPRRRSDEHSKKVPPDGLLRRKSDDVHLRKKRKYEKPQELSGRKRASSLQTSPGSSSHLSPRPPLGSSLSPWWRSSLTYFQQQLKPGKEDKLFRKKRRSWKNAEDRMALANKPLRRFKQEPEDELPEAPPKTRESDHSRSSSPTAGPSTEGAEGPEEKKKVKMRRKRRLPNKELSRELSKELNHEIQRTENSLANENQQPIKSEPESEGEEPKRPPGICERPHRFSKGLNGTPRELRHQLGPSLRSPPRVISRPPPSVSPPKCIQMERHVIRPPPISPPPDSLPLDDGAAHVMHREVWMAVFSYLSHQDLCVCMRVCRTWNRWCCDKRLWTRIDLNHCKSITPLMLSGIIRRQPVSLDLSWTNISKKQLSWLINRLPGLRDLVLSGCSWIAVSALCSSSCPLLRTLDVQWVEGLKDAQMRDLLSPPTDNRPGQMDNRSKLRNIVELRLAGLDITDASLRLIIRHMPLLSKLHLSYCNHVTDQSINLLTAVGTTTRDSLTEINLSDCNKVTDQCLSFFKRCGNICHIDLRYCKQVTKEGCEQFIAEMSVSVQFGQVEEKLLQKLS

[2] = target: Lysine-specific demethylase 5B (Homo sapiens, UniProt Q9UGL1); assay: Inhibition of KDM5B (1 to 809 residues)(unknown origin) by Alphalisa assay
[3] = target: Lysine-specific demethylase 6A (Homo sapiens, UniProt O15550); assay: Inhibition of KDM6A (919 to 1401 residues)(unknown origin) by Alphalisa assay
[4] = target: T2, Lysine-specific demethylase 4B (Homo sapiens, UniProt O94953); assay: Inhibition of KDM4B (2 to 500 residues)(unknown origin) by Alphalisa assay
T2 sequence (O94953 whole entry): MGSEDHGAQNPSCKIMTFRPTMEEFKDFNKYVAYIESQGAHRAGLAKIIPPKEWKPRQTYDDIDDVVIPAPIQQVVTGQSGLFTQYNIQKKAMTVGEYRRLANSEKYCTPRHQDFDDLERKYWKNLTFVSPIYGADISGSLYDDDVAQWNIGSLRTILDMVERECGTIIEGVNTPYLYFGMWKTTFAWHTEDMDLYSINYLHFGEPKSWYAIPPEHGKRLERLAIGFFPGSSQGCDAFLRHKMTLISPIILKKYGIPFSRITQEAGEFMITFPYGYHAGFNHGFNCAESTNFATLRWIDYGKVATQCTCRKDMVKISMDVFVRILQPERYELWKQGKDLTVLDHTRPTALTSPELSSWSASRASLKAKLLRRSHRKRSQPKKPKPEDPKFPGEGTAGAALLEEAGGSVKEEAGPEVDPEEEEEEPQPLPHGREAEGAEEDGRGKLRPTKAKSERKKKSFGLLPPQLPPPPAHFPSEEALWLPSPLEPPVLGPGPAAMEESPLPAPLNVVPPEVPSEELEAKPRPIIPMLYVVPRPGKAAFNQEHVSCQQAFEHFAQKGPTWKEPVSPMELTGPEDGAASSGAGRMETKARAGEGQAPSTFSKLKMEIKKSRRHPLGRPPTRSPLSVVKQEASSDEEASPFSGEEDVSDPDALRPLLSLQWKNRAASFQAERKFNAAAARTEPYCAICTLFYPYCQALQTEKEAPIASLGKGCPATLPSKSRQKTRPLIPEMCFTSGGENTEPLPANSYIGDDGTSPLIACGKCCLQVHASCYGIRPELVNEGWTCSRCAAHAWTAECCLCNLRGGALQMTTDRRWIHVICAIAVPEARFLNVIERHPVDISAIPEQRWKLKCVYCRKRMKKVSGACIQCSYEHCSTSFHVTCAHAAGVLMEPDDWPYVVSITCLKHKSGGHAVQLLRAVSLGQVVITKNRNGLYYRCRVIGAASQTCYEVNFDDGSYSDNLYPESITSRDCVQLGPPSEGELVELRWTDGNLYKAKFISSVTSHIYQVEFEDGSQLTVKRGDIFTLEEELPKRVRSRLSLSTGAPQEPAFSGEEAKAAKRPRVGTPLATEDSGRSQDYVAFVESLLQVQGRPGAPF

[5] = target: Histone lysine demethylase PHF8 (Homo sapiens, UniProt Q9UPP1); assay: Inhibition of PHF8 (1 to 1024 residues)(unknown origin) by Alphalisa assay
Chain of Histone lysine demethylase PHF8 (Q9UPP1 whole entry, the tested form may be a part): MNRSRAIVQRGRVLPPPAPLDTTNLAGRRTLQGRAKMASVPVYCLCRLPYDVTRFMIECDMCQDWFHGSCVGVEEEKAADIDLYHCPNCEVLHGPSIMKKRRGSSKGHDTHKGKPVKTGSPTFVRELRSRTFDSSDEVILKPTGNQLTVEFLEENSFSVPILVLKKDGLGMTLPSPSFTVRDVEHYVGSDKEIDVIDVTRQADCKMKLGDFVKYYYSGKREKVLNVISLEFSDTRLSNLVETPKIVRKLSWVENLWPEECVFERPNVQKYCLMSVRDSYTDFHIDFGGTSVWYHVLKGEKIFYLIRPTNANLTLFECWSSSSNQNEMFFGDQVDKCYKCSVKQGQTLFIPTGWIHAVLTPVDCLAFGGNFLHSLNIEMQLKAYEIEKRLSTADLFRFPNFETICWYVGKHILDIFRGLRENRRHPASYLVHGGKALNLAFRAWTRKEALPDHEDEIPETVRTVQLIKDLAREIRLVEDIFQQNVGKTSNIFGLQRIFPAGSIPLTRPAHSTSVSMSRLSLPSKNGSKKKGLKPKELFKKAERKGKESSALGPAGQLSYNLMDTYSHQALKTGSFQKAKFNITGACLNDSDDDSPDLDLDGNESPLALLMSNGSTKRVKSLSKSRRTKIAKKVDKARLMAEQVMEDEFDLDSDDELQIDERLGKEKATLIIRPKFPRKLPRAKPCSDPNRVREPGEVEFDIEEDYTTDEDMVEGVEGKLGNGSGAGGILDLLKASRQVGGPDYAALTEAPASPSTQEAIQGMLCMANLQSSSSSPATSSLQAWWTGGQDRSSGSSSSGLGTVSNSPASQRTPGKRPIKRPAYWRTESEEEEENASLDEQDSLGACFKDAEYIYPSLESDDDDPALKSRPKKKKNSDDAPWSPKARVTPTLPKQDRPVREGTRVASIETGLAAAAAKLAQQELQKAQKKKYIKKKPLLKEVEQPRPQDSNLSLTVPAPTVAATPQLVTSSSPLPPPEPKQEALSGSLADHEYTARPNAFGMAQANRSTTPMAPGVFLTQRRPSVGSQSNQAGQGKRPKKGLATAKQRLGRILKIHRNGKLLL

Chain of Lysine-specific demethylase 5B (Q9UGL1 whole entry, the tested form may be a part): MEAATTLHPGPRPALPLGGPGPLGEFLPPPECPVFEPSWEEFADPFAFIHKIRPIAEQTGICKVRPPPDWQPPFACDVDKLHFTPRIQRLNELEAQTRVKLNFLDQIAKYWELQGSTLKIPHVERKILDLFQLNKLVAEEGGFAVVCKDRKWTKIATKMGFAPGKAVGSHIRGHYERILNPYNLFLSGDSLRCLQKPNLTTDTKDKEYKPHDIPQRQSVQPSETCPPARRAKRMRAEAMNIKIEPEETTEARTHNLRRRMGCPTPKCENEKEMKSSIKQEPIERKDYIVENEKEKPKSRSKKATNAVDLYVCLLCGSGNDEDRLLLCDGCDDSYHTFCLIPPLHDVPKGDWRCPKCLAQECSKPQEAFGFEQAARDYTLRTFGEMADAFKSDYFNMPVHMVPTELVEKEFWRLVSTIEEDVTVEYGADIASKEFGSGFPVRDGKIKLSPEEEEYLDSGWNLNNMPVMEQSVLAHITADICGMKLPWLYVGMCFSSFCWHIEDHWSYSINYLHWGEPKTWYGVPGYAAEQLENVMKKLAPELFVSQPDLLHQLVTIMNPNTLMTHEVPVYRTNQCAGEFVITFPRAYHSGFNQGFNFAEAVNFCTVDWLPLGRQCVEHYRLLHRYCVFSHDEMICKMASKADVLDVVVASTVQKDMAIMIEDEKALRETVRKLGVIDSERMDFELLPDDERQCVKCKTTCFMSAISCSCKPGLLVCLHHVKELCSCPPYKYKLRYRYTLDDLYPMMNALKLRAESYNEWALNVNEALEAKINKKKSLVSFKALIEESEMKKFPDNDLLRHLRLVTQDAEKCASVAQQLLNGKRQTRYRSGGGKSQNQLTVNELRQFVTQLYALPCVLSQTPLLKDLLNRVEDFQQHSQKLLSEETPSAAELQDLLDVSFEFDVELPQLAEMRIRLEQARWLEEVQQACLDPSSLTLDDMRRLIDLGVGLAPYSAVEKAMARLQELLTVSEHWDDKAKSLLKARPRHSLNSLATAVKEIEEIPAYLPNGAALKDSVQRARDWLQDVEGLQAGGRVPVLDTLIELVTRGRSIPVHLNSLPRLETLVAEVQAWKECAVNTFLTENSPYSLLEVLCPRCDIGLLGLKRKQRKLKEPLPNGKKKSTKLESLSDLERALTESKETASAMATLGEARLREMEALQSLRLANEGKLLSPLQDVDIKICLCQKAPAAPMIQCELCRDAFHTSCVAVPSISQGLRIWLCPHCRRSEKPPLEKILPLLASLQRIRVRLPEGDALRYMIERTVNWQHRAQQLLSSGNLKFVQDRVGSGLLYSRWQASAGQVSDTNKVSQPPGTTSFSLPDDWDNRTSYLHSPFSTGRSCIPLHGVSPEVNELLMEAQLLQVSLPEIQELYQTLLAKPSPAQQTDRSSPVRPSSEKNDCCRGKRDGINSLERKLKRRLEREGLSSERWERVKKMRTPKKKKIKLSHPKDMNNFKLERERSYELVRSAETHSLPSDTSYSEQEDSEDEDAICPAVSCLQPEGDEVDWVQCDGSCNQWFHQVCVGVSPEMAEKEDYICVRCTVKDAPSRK
Chain of Lysine-specific demethylase 6A (O15550 whole entry, the tested form may be a part): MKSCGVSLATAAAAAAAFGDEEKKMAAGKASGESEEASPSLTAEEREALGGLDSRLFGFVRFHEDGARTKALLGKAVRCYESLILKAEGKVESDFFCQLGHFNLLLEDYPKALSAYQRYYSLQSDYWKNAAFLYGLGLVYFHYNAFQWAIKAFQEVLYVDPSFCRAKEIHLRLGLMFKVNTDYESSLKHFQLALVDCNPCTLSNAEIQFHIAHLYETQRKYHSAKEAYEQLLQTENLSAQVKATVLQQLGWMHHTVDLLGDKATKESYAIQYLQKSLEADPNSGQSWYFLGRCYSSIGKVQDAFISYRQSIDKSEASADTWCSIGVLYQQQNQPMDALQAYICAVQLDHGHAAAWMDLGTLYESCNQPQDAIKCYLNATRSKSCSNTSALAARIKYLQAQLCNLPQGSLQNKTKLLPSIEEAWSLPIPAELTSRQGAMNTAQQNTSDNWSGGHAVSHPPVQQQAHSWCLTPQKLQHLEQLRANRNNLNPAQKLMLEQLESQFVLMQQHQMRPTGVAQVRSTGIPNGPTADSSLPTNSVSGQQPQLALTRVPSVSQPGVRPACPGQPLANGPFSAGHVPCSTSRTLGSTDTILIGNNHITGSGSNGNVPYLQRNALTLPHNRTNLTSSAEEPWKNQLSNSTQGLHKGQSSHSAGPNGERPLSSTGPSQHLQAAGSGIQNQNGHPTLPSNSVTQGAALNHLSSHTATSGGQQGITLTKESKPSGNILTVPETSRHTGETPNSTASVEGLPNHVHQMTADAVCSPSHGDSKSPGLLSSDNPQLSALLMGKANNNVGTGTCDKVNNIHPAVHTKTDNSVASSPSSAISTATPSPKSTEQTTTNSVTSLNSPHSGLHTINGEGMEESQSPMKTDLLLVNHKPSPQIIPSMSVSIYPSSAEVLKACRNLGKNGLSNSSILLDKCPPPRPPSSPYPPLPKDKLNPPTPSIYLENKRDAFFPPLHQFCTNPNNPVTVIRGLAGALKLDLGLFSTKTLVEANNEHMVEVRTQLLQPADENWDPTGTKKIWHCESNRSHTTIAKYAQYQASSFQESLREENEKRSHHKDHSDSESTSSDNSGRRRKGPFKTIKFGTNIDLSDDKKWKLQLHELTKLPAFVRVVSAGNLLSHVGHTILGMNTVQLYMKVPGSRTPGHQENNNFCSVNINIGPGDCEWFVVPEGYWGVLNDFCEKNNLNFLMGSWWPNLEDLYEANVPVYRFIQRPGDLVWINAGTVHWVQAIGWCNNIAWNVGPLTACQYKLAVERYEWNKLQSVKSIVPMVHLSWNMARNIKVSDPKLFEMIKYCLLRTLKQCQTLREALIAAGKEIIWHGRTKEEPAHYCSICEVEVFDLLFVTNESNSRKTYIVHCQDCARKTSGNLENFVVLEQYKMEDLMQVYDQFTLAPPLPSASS

Compound | IC50 [1] | IC50 [2] | IC50 [3] | IC50 [4] | IC50 [5]
CCOC(=O)CCNc1cc(N2CCc3ccccc3CC2)nc(-c2ccccn2)n1 | 2.1 µM | 9.7 µM | 6.6 µM | 3.8 µM | 4.2 µM
O=C(O)CCNc1cc(N2CCc3ccccc3CC2)nc(-c2ccccn2)n1 | 21 µM | 0.17 µM | 0.053 µM | 73 µM | 28 µM
